In ChEMBL document CHEMBL3879914, “Inhibitors of central nervous system vasoactive inhibitory peptide receptor 2” (2014):

Key:
[1] = molecular target: T1, Vasoactive intestinal polypeptide receptor 2 (Homo sapiens) (UniProt P41587); assay: (§1) Antagonist activity at recombinant human N-terminal signal peptide/FLAG epitope-tagged VIPR2 expressed in HEK293 cells co-expressing CAMYEL assessed as inhibition of VIP-induced cAMP accumulation at 0.5 uM preincubated for 5 mins with luciferin, coelenterazine H followed by VIP addition measured after 5 mins by BRET assay relative to control; type: functional, cell-based
T1 sequence (whole entry): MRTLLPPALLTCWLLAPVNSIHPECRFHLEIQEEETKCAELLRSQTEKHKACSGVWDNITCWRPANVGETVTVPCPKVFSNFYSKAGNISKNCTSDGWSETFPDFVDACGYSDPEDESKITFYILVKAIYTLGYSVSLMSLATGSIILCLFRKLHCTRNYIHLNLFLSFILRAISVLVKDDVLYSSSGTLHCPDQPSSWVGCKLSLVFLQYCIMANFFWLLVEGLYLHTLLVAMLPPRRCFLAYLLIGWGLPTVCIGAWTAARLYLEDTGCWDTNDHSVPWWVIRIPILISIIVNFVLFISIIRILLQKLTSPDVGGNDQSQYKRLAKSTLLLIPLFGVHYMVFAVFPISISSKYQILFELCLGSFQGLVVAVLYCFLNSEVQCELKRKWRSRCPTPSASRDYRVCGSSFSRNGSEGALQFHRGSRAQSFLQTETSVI

[2] = molecular target: T1, Vasoactive intestinal polypeptide receptor 2 (Homo sapiens); assay: as §1, with “5” for “0.5”; type: functional, cell-based
[3] = molecular target: T1, Vasoactive intestinal polypeptide receptor 2 (Homo sapiens); assay: as §1, with “1” for “0.5”; type: functional, cell-based
[4] = molecular target: T1, Vasoactive intestinal polypeptide receptor 2 (Homo sapiens); assay: as §1, with “epitope-tagged Rluc8-fused” for “epitope-tagged”, “cells” for “cells co-expressing CAMYEL”, “human mVenus-beta-arrestin2 binding” for “cAMP accumulation”, “5” for “0.5”; type: cell-based
[5] = molecular target: T1, Vasoactive intestinal polypeptide receptor 2 (Homo sapiens); assay: as §1, with “epitope-tagged Rluc8-fused” for “epitope-tagged”, “cells” for “cells co-expressing CAMYEL”, “human mVenus-beta-arrestin2 binding” for “cAMP accumulation”, “1” for “0.5”; type: cell-based
[6] = molecular target: T1, Vasoactive intestinal polypeptide receptor 2 (Homo sapiens); assay: as §1, with “epitope-tagged Rluc8-fused” for “epitope-tagged”, “cells” for “cells co-expressing CAMYEL”, “human mVenus-beta-arrestin2 binding” for “cAMP accumulation”; type: cell-based

| SMILES | inhibition [1] [%] | inhibition [2] [%] | inhibition [3] [%] | inhibition [4] [%] | inhibition [5] [%] | inhibition [6] [%] |
| --- | --- | --- | --- | --- | --- | --- |
| CC(C)Nc1ccc(S(=O)(=O)NC[C@@H](O)C[C@@H](Cc2ccccc2)C(=O)N[C@H]2c3ccccc3C[C@H]2O)cc1 | 17.2 | 20.6 | 18.2 | 11.8 | -2 | 8.1 to 16.2 |
| O=C(Cc1cccc(Cl)c1)NC[C@@H](O)C[C@@H](Cc1ccccc1)C(=O)N[C@H]1c2ccccc2C[C@H]1O | 14.4 | 26.5 | 16 | 17.2 | 20.1 | 11.3 to 21.9 |
| COc1ccc(S(=O)(=O)NC[C@@H](O)C[C@@H](Cc2ccccc2)C(=O)N[C@H]2c3ccccc3C[C@H]2O)cc1 | 33.9 | 93.8 | 45.9 | 89.4 | 76.7 | 54.1 to 91.6 |
| N#Cc1ccc(S(=O)(=O)NC[C@@H](O)C[C@@H](Cc2ccccc2)C(=O)N[C@H]2c3ccccc3C[C@H]2O)cc1 | 27.3 | 93.1 | 43.6 | 90.4 | 59.5 | 38.5 to 91.8 |
| O=C(O)c1ccc(S(=O)(=O)NC[C@@H](O)C[C@@H](Cc2ccccc2)C(=O)N[C@H]2c3ccccc3C[C@H]2O)cc1 | 7.4 | 26 | 6.4 | 0.2 | -1.8 | 6.4 to 13.1 |
| O=C(NCc1ccc(F)cc1F)[C@@H](Cc1ccccc1)C[C@H](O)CNS(=O)(=O)c1ccc([N+](=O)[O-])cc1 | -5.4 | 13.8 to 18.2 | 4.7 to 13.8 | 24 | 20 | 21.1 to 23.9 |
| O=C(N[C@H]1c2ccccc2C[C@H]1O)[C@H](Cc1ccccc1)C[C@H](O)CNS(=O)(=O)c1ccc(C(F)(F)F)cc1 | 42 | 98.5 | 63.1 | 92.9 | 83 | 58.1 to 95.7 |
| CC(C)C(=O)Nc1ccc(S(=O)(=O)NC[C@@H](O)C[C@@H](Cc2ccccc2)C(=O)N[C@H]2c3ccccc3C[C@H]2O)cc1 | 1 | 16.7 | 6.9 | -7.5 | 5.1 | 4.6 to 5.3 |
| NC(=O)[C@@H](Cc1ccccc1)C[C@H](O)CNS(=O)(=O)c1ccc([N+](=O)[O-])cc1 | 14.6 | 9.7 | 12.6 | 7 | -9.8 | 3.5 to 8.35 |
| O=C(NCc1ccccc1)c1ccc(S(=O)(=O)NC[C@@H](O)C[C@@H](Cc2ccccc2)C(=O)N[C@H]2c3ccccc3C[C@H]2O)cc1 | 25 | 90.5 | 32.3 | -7.7 | -2 | 4.8 to 41.4 |
| O=C(NC[C@@H](O)C[C@@H](Cc1ccccc1)C(=O)N[C@H]1c2ccccc2C[C@H]1O)C1CC1 | 21 | 24 | 21.1 | 29.1 | 37 | -3.8 to 26.6 |
| CC(=O)Nc1ccc(S(=O)(=O)NC[C@@H](O)C[C@@H](Cc2ccccc2)C(=O)N[C@H]2c3ccccc3C[C@H]2O)cc1 | 15.2 | 19.1 | 19.1 | 4.2 | 4.9 | -1.2 to 11.7 |
| O=C(N[C@H]1c2ccccc2C[C@H]1O)[C@H](Cc1ccccc1)C[C@H](O)CNS(=O)(=O)c1ccc(C(=O)N2CCOCC2)cc1 | -1.4 | 25.5 | 0.1 | -5.4 | 1.8 | 4.1 to 10.1 |
| O=C(NCCc1cccc(Cl)c1)[C@H](Cc1ccccc1)C[C@H](O)CNS(=O)(=O)c1ccc([N+](=O)[O-])cc1 | -5.5 | 7.8 | -3.4 | -8.6 | -7.8 | -6.7 to -0.4 |
| Nc1ccc(S(=O)(=O)NC[C@@H](O)C[C@@H](Cc2ccccc2)C(=O)N[C@H]2c3ccccc3C[C@H]2O)cc1 | 8.4 | 33.3 | 18.6 | 6.7 | -5.5 | -5.6 to 20 |
| CC(C)CNc1ccc(S(=O)(=O)NC[C@@H](O)C[C@@H](Cc2ccccc2)C(=O)N[C@H]2c3ccccc3C[C@H]2O)cc1 | 21.6 | 27.4 | 16.7 | 11.9 | 5.2 | 10.2 to 19.6 |

| SMILES | inhibition [1] [%] | inhibition [2] [%] | inhibition [3] [%] | inhibition [4] [%] | inhibition [5] [%] | inhibition [6] [%] |
| --- | --- | --- | --- | --- | --- | --- |
| O=C(NC[C@@H](O)C[C@@H](Cc1ccccc1)C(=O)N[C@H]1c2ccccc2C[C@H]1O)c1c(Cl)cc(Cl)cc1Cl | 17.6 | 12.3 | 14.8 | 31.5 | 25.3 | 21.9 to 23.9 |
| O=C(NC[C@@H](O)C[C@@H](Cc1ccccc1)C(=O)N[C@H]1c2ccccc2C[C@H]1O)c1ccc2ccccc2c1 | 13.2 | 23.5 | 16.3 | 9.7 | 11.1 | -2.9 to 16.6 |
| O=C(NCc1ccccc1)[C@H](Cc1ccccc1)C[C@H](O)CNS(=O)(=O)c1ccc([N+](=O)[O-])cc1 | -1.1 | -2.9 | -1.3 | 24.2 | 4.4 | 1.8 to 10.7 |
| O=C(NC[C@@H](O)C[C@@H](Cc1ccccc1)C(=O)N[C@H]1c2ccccc2C[C@H]1O)c1ccccc1[N+](=O)[O-] | 17.6 | 9.1 | 14.3 | 26.1 | 35.1 | 17.6 to 36.4 |
| O=C(NC[C@@H](O)C[C@@H](Cc1ccccc1)C(=O)N[C@H]1c2ccccc2C[C@H]1O)c1ccco1 | 20.8 | 19.1 | 22.5 | 33.3 | 27.7 | 26.2 to 30.3 |
| CCCCNC(=O)[C@H](Cc1ccccc1)C[C@H](O)CNS(=O)(=O)c1ccc([N+](=O)[O-])cc1 | 0.9 | 5.3 | 5.1 | 13.8 | 1.9 | -5.6 to 9.55 |
| O=C(CCl)NC[C@@H](O)C[C@@H](Cc1ccccc1)C(=O)N[C@H]1c2ccccc2C[C@H]1O | 18.4 | 15.6 | 19.2 | 17.5 | 23.7 | 9.9 to 16.6 |
| CS(=O)(=O)NC[C@@H](O)C[C@@H](Cc1ccccc1)C(=O)N[C@H]1c2ccccc2C[C@H]1O | 21.4 | 18.5 | 21.9 | 23.4 | 31.6 | 17.3 to 20.9 |
| O=C(NCc1ccccc1)[C@@H](Cc1ccccc1)C[C@H](O)CNS(=O)(=O)c1ccc([N+](=O)[O-])cc1 | -1 | 4.9 | 1.5 | 7.2 | -4.1 | -0.3 to 6.05 |
| CCCCNC(=O)c1ccc(S(=O)(=O)NC[C@@H](O)C[C@@H](Cc2ccccc2)C(=O)N[C@H]2c3ccccc3C[C@H]2O)cc1 | -0.4 | 20.6 | 5.9 | -5.5 | 2.9 | -0.4 to 7.55 |
| O=C(NN1CCCCC1)[C@@H](Cc1ccccc1)C[C@H](O)CNS(=O)(=O)c1ccc([N+](=O)[O-])cc1 | 9.2 | 6 | 12.3 | 4.7 | 3.3 | -0.9 to 5.35 |
| O=C(NC[C@@H](O)C[C@@H](Cc1ccccc1)C(=O)N[C@H]1c2ccccc2C[C@H]1O)c1cccc([N+](=O)[O-])c1 | 11.8 | 13.5 | 11 | -4 | 7.4 | 4.75 to 19.9 |
| O=C(N[C@H]1c2ccccc2C[C@H]1O)[C@H](Cc1ccccc1)C[C@H](O)CNS(=O)(=O)c1cccc([N+](=O)[O-])c1 | 18.4 | 21.3 | 15.2 | 33.4 | 35.1 | 24.2 to 27.4 |
| CNC(=O)[C@H](Cc1ccccc1)C[C@H](O)CNS(=O)(=O)c1ccc([N+](=O)[O-])cc1 | 7 | 9.3 | 8.3 | 3.2 | 4 | 6.25 to 6.9 |
| O=C(NC[C@@H](O)C[C@@H](Cc1ccccc1)C(=O)N[C@H]1c2ccccc2C[C@H]1O)c1ccccn1 | 14.9 | 20.3 | 17.7 | 5.5 | 32.7 | 6.1 to 12.9 |
